Test results from patent publication US12590062B2, “PD-1/PD-L1 inhibitors” (Gilead Sciences, Inc., priority 2017, dated 2026).

How the values were obtained:
PD-1/PD-L1 = PD-1/PD-L1 (Homo sapiens, UniProt Q9NZQ7); assay: PD-1/PD-L1 biochemical protein-protein interaction assay (ALPHA); assay type: binding; conditions: 0.3 nM His tagged PD-L1, 2.5 nM biotinylated Fc-PD-1, 60 minutes at 25° C., read-out: IC50 PD-L1-PD-1 Alpha IC50-mono PD-L1-fcP-D1
In short: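 Final concentrations 0.3 nM His-tagged PD-L1 and 2.5 nM biotinylated Fc-PD-1 (extracellular domains) were reacted with compound for 60 min at 25° C in pH 7.4 Hepes/NaCl/EDTA/Tween/BSA buffer. Binding was then detected by ALPHA beads, and IC50 values were taken from four-parameter curve fitting.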

PD-1/PD-L1 interaction = target: T1, PD-1/PD-L1 interaction (Homo sapiens, UniProt Q9NZQ7); assay: PD-1/PD-L1 NFAT reporter co-culture assay; assay type: cell-based; conditions: Jurkat PD-1 NFAT-luciferase cells co-cultured with aAPC-PD-L1 CHO cells, 6 hrs at 37° C.; read-out: EC50 NFAT Luciferase
T1 construct: expressed in transfected cells; host or cells: CHO cells (aAPC-PD-L1) co-cultured with Jurkat cells overexpressing PD-1 and an NFAT-luciferase reporter
T1 sequence (Q9NZQ7 19-290): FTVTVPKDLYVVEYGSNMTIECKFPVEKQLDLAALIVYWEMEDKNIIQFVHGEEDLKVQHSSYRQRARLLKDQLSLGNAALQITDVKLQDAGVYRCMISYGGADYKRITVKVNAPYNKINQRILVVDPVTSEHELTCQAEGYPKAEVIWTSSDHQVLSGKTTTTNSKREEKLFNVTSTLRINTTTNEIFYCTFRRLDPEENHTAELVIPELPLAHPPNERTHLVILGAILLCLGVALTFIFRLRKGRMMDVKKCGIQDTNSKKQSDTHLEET
In short: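 Luminescence (ONE-Glo) after 6 h, 37 °C co-culture reports NFAT-luciferase in PD-1 Jurkat cells, which PD-1/PD-L1 engagement suppresses. Partner cells: CHO expressing anti-CD3 and PD-L1. EC50 from four-parameter dose-response fit.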

Chain of PD-1/PD-L1 (Q9NZQ7 19-238 limits assumed): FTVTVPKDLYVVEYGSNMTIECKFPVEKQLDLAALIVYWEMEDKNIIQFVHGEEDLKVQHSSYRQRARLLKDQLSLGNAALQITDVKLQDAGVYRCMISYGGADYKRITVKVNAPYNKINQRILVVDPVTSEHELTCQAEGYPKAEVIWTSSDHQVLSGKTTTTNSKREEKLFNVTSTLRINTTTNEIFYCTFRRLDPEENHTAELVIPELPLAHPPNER

## Cc1c(COc2cc(OCc3cncc(C#N)c3)c(CNC[C@@H](O)CC(=O)O)cc2Cl)cccc1-c1cncc(COc2cc(OCc3cncc(C#N)c3)c(CNC[C@@H](O)CC(=O)O)cc2Cl)c1 [Example 208, (S)-4-((4-((5-(3-((4-((((S)-3-Carboxy-2-hydroxypropyl)amino)methyl)-2-chloro-5-((5-cyanopyridin-3-yl)methoxy)phenoxy)methyl)-2-methylphenyl)pyridin-3-yl)methoxy)-5-chloro-2-((5-cyanopyridin-3-yl)methoxy)benzyl)amino)-3-hydroxybutanoic acid]
PD-1/PD-L1
  IC50: 1.4 nM
PD-1/PD-L1 interaction
  EC50: 10600 nM

## Cc1c(COc2cc(OCc3cncc(C#N)c3)c(CNCC[C@H](O)C(=O)O)cc2Cl)cccc1-c1cccc(COc2cc(OCc3cncc(C#N)c3)c(CNCC[C@H](O)C(=O)O)cc2Cl)c1C [Example 215, (2S,2′S)-4,4′-((((((2,2′-dimethyl-[1,1′-biphenyl]-3,3′-diyl)bis(methylene))bis(oxy))bis(5-chloro-2-((5-cyanopyridin-3-yl)methoxy)-4,1-phenylene))bis(methylene))bis(azanediyl))bis(2-hydroxybutanoic acid)]
PD-1/PD-L1
  IC50: 1.26 nM
PD-1/PD-L1 interaction
  EC50: 413 nM

## Cc1c(COc2cc(OCc3ccnc(C#N)c3)c(CNC[C@@H](O)CC(=O)O)cc2Cl)cccc1-c1cccc(COc2cc(OCc3ccnc(C#N)c3)c(CNC[C@@H](O)CC(=O)O)cc2Cl)c1C [Example 219, (3S,3′S)-4,4′-((((((2,2′-dimethyl-[1,1′-biphenyl]-3,3′-diyl)bis(methylene))bis(oxy))bis(5-chloro-2-((2-cyanopyridin-4-yl)methoxy)-4,1-phenylene))bis(methylene))bis(azanediyl))bis(3-hydroxybutanoic acid)]
PD-1/PD-L1
  IC50: 0.2 nM
PD-1/PD-L1 interaction
  EC50: 558 nM

## Cc1c(COc2cc(OCc3cc(C#N)cc(C#N)c3)c(CNC[C@@H](O)CC(=O)O)cc2Cl)cccc1-c1cccc(COc2cc(OCc3cc(C#N)cc(C#N)c3)c(CNC[C@@H](O)CC(=O)O)cc2Cl)c1C [Example 220, (3S,3′S)-4,4′-((((((2,2′-dimethyl-[1,1′-biphenyl]-3,3′-diyl)bis(methylene))bis(oxy))bis(5-chloro-2-((3,5-dicyanobenzyl)oxy)-4,1-phenylene))bis(methylene))bis(azanediyl))bis(3-hydroxybutanoic acid)]
PD-1/PD-L1
  IC50: 2 nM
PD-1/PD-L1 interaction
  EC50: 177 nM

## Cc1c(COc2cc(OCc3cccc(C#N)n3)c(CNC[C@@H](O)CC(=O)O)cc2Cl)cccc1-c1cccc(COc2cc(OCc3cccc(C#N)n3)c(CNC[C@@H](O)CC(=O)O)cc2Cl)c1C [Example 221, (3S,3′S)-4,4′-((((((2,2′-dimethyl-[1,1′-biphenyl]-3,3′-diyl)bis(methylene))bis(oxy))bis(5-chloro-2-((6-cyanopyridin-2-yl)methoxy)-4,1-phenylene))bis(methylene))bis(azanediyl))bis(3-hydroxybutanoic acid)]
PD-1/PD-L1
  IC50: 1.5 nM
PD-1/PD-L1 interaction
  EC50: 274 nM

## Cc1c(COc2cc(OCc3cncc(C(N)=O)c3)c(CNC[C@@H](O)CC(=O)O)cc2Cl)cccc1-c1cccc(COc2cc(OCc3cncc(C(N)=O)c3)c(CNC[C@@H](O)CC(=O)O)cc2Cl)c1C [Example 222, (3S,3′S)-4,4′-((((((2,2′-dimethyl-[1,1′-biphenyl]-3,3′-diyl)bis(methylene))bis(oxy))bis(2-((5-carbamoylpyridin-3-yl)methoxy)-5-chloro-4,1-phenylene))bis(methylene))bis(azanediyl))bis(3-hydroxybutanoic acid)]
PD-1/PD-L1
  IC50: 0.3 nM
PD-1/PD-L1 interaction
  EC50: 856 nM

## Cc1c(COc2ccc(CNCCO)cc2C(F)(F)F)cccc1-c1cccc(COc2ccc(CNCCO)cc2C(F)(F)F)c1C [Example 223, 2,2′-((((((2,2′-dimethyl-[1,1′-biphenyl]-3,3′-diyl)bis(methylene))bis(oxy))bis(3-(trifluoromethyl)-4,1-phenylene))bis(methylene))bis(azanediyl))bis(ethan-1-ol)]
PD-1/PD-L1
  IC50: 34.6 nM
PD-1/PD-L1 interaction
  EC50: ≥ 50000 nM

## Cc1c(COc2ccc(CNC[C@@H](O)CC(=O)O)cc2C(F)(F)F)cccc1-c1cccc(COc2ccc(CNC[C@@H](O)CC(=O)O)cc2C(F)(F)F)c1C [Example 224, (3S,3′S)-4,4′-((((((2,2′-dimethyl-[1,1′-biphenyl]-3,3′-diyl)bis(methylene))bis(oxy))bis(3-(trifluoromethyl)-4,1-phenylene))bis(methylene))bis(azanediyl))bis(3-hydroxybutanoic acid)]
PD-1/PD-L1
  IC50: 1.8 nM
PD-1/PD-L1 interaction
  EC50: 24900 nM

## COc1nc(/C=C/c2cccc(-c3cccc(/C=C/c4ccc(CNC[C@@H](O)CC(=O)O)c(OC)n4)c3C)c2C)ccc1CNC[C@@H](O)CC(=O)O [Example 238, (3S,3′S)-4,4′-(((((1E,1′E)-(2,2′-dimethyl-[1,1′-biphenyl]-3,3′-diyl)bis(ethene-2,1-diyl))bis(2-methoxypyridine-6,3-diyl))bis(methylene))bis(azanediyl))bis(3-hydroxybutanoic acid)]
PD-1/PD-L1
  IC50: 0.9 nM
PD-1/PD-L1 interaction
  EC50: 2120 nM

## COc1nc(/C=C/c2cccc(-c3cccc(/C=C/c4nc(OC)c(CNC[C@@H](O)CC(=O)O)cc4Cl)c3C)c2C)c(Cl)cc1CNC[C@@H](O)CC(=O)O [Example 239, (3S,3′S)-4,4′-(((((1E,1′E)-(2,2′-dimethyl-[1,1′-biphenyl]-3,3′-diyl)bis(ethene-2,1-diyl))bis(5-chloro-2-methoxypyridine-6,3-diyl))bis(methylene))bis(azanediyl))bis(3-hydroxybutanoic acid)]
PD-1/PD-L1
  IC50: 8.1 nM
PD-1/PD-L1 interaction
  EC50: 1120 nM

## Cc1cc(OCc2cccc(-c3cccc(COc4cc(C)c(CNC[C@@H](O)CC(=O)O)c(OCc5cncc(C#N)c5)c4)c3C)c2C)cc(OCc2cncc(C#N)c2)c1CNC[C@@H](O)CC(=O)O [Example 246, (3S,3′S)-4,4′-((((((2,2′-dimethyl-[1,1′-biphenyl]-3,3′-diyl)bis(methylene))bis(oxy))bis(2-((5-cyanopyridin-3-yl)methoxy)-6-methyl-4,1-phenylene))bis(methylene))bis(azanediyl))bis(3-hydroxybutanoic acid)]
PD-1/PD-L1
  IC50: 1 nM
PD-1/PD-L1 interaction
  EC50: 1200 nM

## CC(=O)NCCNCc1ccc(OCc2cccc(-c3cccc(COc4ccc(CNCCNC(C)=O)c(-c5cncc(C#N)c5)c4)c3C)c2C)cc1-c1cncc(C#N)c1 [Example 250, N,N′-(((((((2,2′-dimethyl-[1,1′-biphenyl]-3,3′-diyl)bis(methylene))bis(oxy))bis(2-(5-cyanopyridin-3-yl)-4,1-phenylene))bis(methylene))bis(azanediyl))bis(ethane-2,1-diyl))diacetamide]
PD-1/PD-L1
  IC50: 63.6 nM
PD-1/PD-L1 interaction
  EC50: 7490 nM

## Cc1c(COc2ccc(CNC[C@@H](O)CC(=O)O)c(OCc3cncc(C#N)c3)n2)cccc1-c1cccc(COc2ccc(CNC[C@@H](O)CC(=O)O)c(=O)n2Cc2cncc(C#N)c2)c1C [Example 251, (S)-4-(((6-((3′-(((5-((((S)-3-carboxy-2-hydroxypropyl)amino)methyl)-1-((5-cyanopyridin-3-yl)methyl)-6-oxo-1,6-dihydropyridin-2-yl)oxy)methyl)-2,2′-dimethyl-[1,1′-biphenyl]-3-yl)methoxy)-2-((5-cyanopyridin-3-yl)methoxy)pyridin-3-yl)methyl)amino)-3-hydroxybutanoic acid]
PD-1/PD-L1
  IC50: 2 nM
PD-1/PD-L1 interaction
  EC50: 25900 nM

## Cc1c(COc2nc(OCc3cncc(C#N)c3)c(CNC[C@H](O)CC(=O)O)cc2Br)cccc1-c1cccc(COc2nc(OCc3cncc(C#N)c3)c(CNC[C@H](O)CC(=O)O)cc2Br)c1C [Example 252, (3R,3′R)-4,4′-((((((2,2′-dimethyl-[1,1′-biphenyl]-3,3′-diyl)bis(methylene))bis(oxy))bis(5-bromo-2-((5-cyanopyridin-3-yl)methoxy)pyridine-6,3-diyl))bis(methylene))bis(azanediyl))bis(3-hydroxybutanoic acid)]
PD-1/PD-L1
  IC50: 0.3 nM
PD-1/PD-L1 interaction
  EC50: 333 nM

## COc1ccc(COc2nc(OCc3cccc(-c4cccc(COc5nc(OCc6ccc(OC)nc6)c(CNC[C@@H](O)CC(=O)O)cc5Br)c4C)c3C)c(Br)cc2CNC[C@@H](O)CC(=O)O)cn1 [Example 253, (3S,3′S)-4,4′-((((((2,2′-dimethyl-[1,1′-biphenyl]-3,3′-diyl)bis(methylene))bis(oxy))bis(5-bromo-2-((6-methoxypyridin-3-yl)methoxy)pyridine-6,3-diyl))bis(methylene))bis(azanediyl))bis(3-hydroxybutanoic acid)]
PD-1/PD-L1
  IC50: 4.6 nM
PD-1/PD-L1 interaction
  EC50: 304 nM

## Cc1c(COc2cc(OCc3cncc(C#N)c3)c(CNCCO)cc2Br)cccc1-c1cccc(COc2cc(OCc3cncc(C#N)c3)c(CNCCO)cc2Br)c1C [Example 254, 5,5′-((((((2,2′-dimethyl-[1,1′-biphenyl]-3,3′-diyl)bis(methylene))bis(oxy))bis(4-bromo-6-(((2-hydroxyethyl)amino)methyl)-3,1-phenylene))bis(oxy))bis(methylene))dinicotinonitrile]
PD-1/PD-L1
  IC50: 20.8 nM
PD-1/PD-L1 interaction
  EC50: 689 nM

## Cc1c(COc2cc(OCc3cncc(C#N)c3)c(CNC[C@@H](O)CO)cc2Br)cccc1-c1cccc(COc2cc(OCc3cncc(C#N)c3)c(CNC[C@@H](O)CO)cc2Br)c1C [Example 257, 5,5′-((((((2,2′-dimethyl-[1,1′-biphenyl]-3,3′-diyl)bis(methylene))bis(oxy))bis(4-bromo-6-((((R)-2,3-dihydroxypropyl)amino)methyl)-3,1-phenylene))bis(oxy))bis(methylene))dinicotinonitrile]
PD-1/PD-L1
  IC50: 24 nM
PD-1/PD-L1 interaction
  EC50: 657 nM
